Test results: ChEMBL document CHEMBL4177730, “Rational modification of semaxanib and sunitinib for developing a tumor growth inhibitor targeting ATP binding site of tyrosine kinase” (2018)
Active and inactive are the calls of the source.

Legend:
Assay type in all cases: functional, cell-based
U-251 = assay: Growth inhibition of human U251 cells at 10 uM after 48 hrs by sulforhodamine B assay
SF-268 = assay: Growth inhibition of human SF268 cells at 10 uM after 48 hrs by sulforhodamine B assay
SF-539 = assay: Growth inhibition of human SF539 cells at 10 uM after 48 hrs by sulforhodamine B assay
RPMI-8226 = assay: Growth inhibition of human RPMI8226 cells at 10 uM after 48 hrs by sulforhodamine B assay
NCI-H226 = assay: Growth inhibition of human NCI-H226 cells at 10 uM after 48 hrs by sulforhodamine B assay
SN12C = assay: Growth inhibition of human SN12C cells at 10 uM after 48 hrs by sulforhodamine B assay
OVCAR-5 = assay: Growth inhibition of human OVCAR5 cells at 10 uM after 48 hrs by sulforhodamine B assay
HL-60(TB) = assay: Growth inhibition of human HL-60(TB) cells at 10 uM after 48 hrs by sulforhodamine B assay
SK-MEL-5 = assay: Growth inhibition of human SK-MEL-5 cells at 10 uM after 48 hrs by sulforhodamine B assay
HCC 2998 = assay: Growth inhibition of human HCC2998 cells at 10 uM after 48 hrs by sulforhodamine B assay
LOX IMVI = assay: Growth inhibition of human LOXIMVI cells at 10 uM after 48 hrs by sulforhodamine B assay
HOP-62 = assay: Growth inhibition of human HOP62 cells at 10 uM after 48 hrs by sulforhodamine B assay
NCI/ADR-RES = assay: Growth inhibition of human NCI-ADR-RES cells at 10 uM after 48 hrs by sulforhodamine B assay
COLO 205 = assay: Growth inhibition of human COLO205 cells at 10 uM after 48 hrs by sulforhodamine B assay
SK-OV-3 = assay: Growth inhibition of human SKOV3 cells at 10 uM after 48 hrs by sulforhodamine B assay
ACHN = assay: Growth inhibition of human ACHN cells at 10 uM after 48 hrs by sulforhodamine B assay
CAKI-1 = assay: Growth inhibition of human CAKI-1 cells at 10 uM after 48 hrs by sulforhodamine B assay
A498 = assay: Growth inhibition of human A498 cells at 10 uM after 48 hrs by sulforhodamine B assay
UACC-62 = assay: Growth inhibition of human UACC62 cells at 10 uM after 48 hrs by sulforhodamine B assay
MDA-MB-231 = assay: Growth inhibition of human MDA-MB-231 cells at 10 uM after 48 hrs by sulforhodamine B assay
MDA-MB-435 = assay: Growth inhibition of human MDA-MB-435 cells at 10 uM after 48 hrs by sulforhodamine B assay
Malme-3M = assay: Growth inhibition of human MALME-3M cells at 10 uM after 48 hrs by sulforhodamine B assay
A549 = assay: Growth inhibition of human A549/ATCC cells at 10 uM after 48 hrs by sulforhodamine B assay
HT-29 = assay: Growth inhibition of human HT-29 cells at 10 uM after 48 hrs by sulforhodamine B assay
EKVX = assay: Growth inhibition of human EKVX cells at 10 uM after 48 hrs by sulforhodamine B assay
DU-145 = assay: Growth inhibition of human DU145 cells at 10 uM after 48 hrs by sulforhodamine B assay
NCI-H23 = assay: Growth inhibition of human NCI-H23 cells at 10 uM after 48 hrs by sulforhodamine B assay
SW-620 = assay: Growth inhibition of human SW620 cells at 10 uM after 48 hrs by sulforhodamine B assay
CCRF-CEM = assay: Growth inhibition of human CCRF-CEM cells at 10 uM after 48 hrs by sulforhodamine B assay
MCF7 = assay: Growth inhibition of human MCF7 cells at 10 uM after 48 hrs by sulforhodamine B assay
NCI-H460 = assay: Growth inhibition of human NCI-H460 cells at 10 uM after 48 hrs by sulforhodamine B assay
MOLT-4 = assay: Growth inhibition of human MOLT4 cells at 10 uM after 48 hrs by sulforhodamine B assay
M14 = assay: Growth inhibition of human M14 cells at 10 uM after 48 hrs by sulforhodamine B assay
NCI-H522 = assay: Growth inhibition of human NCI-H522 cells at 10 uM after 48 hrs by sulforhodamine B assay
Hs-578T = assay: Growth inhibition of human Hs 578T cells at 10 uM after 48 hrs by sulforhodamine B assay
HCT-15 = assay: Growth inhibition of human HCT15 cells at 10 uM after 48 hrs by sulforhodamine B assay
SNB-19 = assay: Growth inhibition of human SNB19 cells at 10 uM after 48 hrs by sulforhodamine B assay
BT-549 = assay: Growth inhibition of human BT549 cells at 10 uM after 48 hrs by sulforhodamine B assay
OVCAR-4 = assay: Growth inhibition of human OVCAR4 cells at 10 uM after 48 hrs by sulforhodamine B assay
HCT-116 = assay: Growth inhibition of human HCT116 cells at 10 uM after 48 hrs by sulforhodamine B assay
HOP-92 = assay: Growth inhibition of human HOP92 cells at 10 uM after 48 hrs by sulforhodamine B assay
OVCAR-8 = assay: Growth inhibition of human OVCAR8 cells at 10 uM after 48 hrs by sulforhodamine B assay
IGROV-1 = assay: Growth inhibition of human IGROV1 cells at 10 uM after 48 hrs by sulforhodamine B assay
PC-3 = assay: Growth inhibition of human PC3 cells at 10 uM after 48 hrs by sulforhodamine B assay
NCI-H322M = assay: Growth inhibition of human NCI-H322M cells at 10 uM after 48 hrs by sulforhodamine B assay
RXF 393 = assay: Growth inhibition of human RXF393 cells at 10 uM after 48 hrs by sulforhodamine B assay
UO-31 = assay: Growth inhibition of human UO31 cells at 10 uM after 48 hrs by sulforhodamine B assay
786-0 = assay: Growth inhibition of human 786-0 cells at 10 uM after 48 hrs by sulforhodamine B assay
SF-295 = assay: Growth inhibition of human SF295 cells at 10 uM after 48 hrs by sulforhodamine B assay
SNB-75 = assay: Growth inhibition of human SNB75 cells at 10 uM after 48 hrs by sulforhodamine B assay
OVCAR-3 = assay: Growth inhibition of human OVCAR3 cells at 10 uM after 48 hrs by sulforhodamine B assay
MDA-MB-468 = assay: Growth inhibition of human MDA-MB-468 cells at 10 uM after 48 hrs by sulforhodamine B assay
SK-MEL-28 = assay: Growth inhibition of human SK-MEL-28 cells at 10 uM after 48 hrs by sulforhodamine B assay
SK-MEL-2 = assay: Growth inhibition of human SK-MEL-2 cells at 10 uM after 48 hrs by sulforhodamine B assay
TK-10 = assay: Growth inhibition of human TK10 cells at 10 uM after 48 hrs by sulforhodamine B assay
T47D = assay: Growth inhibition of human T47D cells at 10 uM after 48 hrs by sulforhodamine B assay
K562 = assay: Growth inhibition of human K562 cells at 10 uM after 48 hrs by sulforhodamine B assay
KM12 = assay: Growth inhibition of human KM12 cells at 10 uM after 48 hrs by sulforhodamine B assay
SR = assay: Growth inhibition of human SR cells at 10 uM after 48 hrs by sulforhodamine B assay

Measured: growth inhibition (GI)

O=C1/C(=C\c2cccn2Cc2ccc(Cl)cc2)c2ccccc2N1c1c(Cl)cccc1Cl
inactive: all assays above
